Source: US20240384250A1, “FIBROBLAST GROWTH FACTOR 23 MODULATING COMPOUNDS” (THE UAB RESEARCH FOUNDATION, priority 2021, published 2024)

Experiments:
Experiment in all cases: Surface plasmon resonance, heparin immobilized on chip
Type in all cases: binding
Details in all cases: SPR
FGFR4 = target: T1, FGFR4 (Homo sapiens, UniProt P22455)
T1 construct: Fc-FGFR4 protein (human ectodomain) was immobilized; purchased R&D Systems 685FR050
Experimental: (§1) For the direct quantitative analysis of label-free molecular interactions in real time, surface plasmon resonance studies were conducted using BIAcore T200 and T200 evaluation software (28975001, Cytiva). Sensor SA (BR100398) and CMS chips (BR100399) were from Cytiva. For the preparation of heparin chips, heparin (2 mg) and amine-PEG3-Biotin (2 mg, 21347, Pierce) were dissolved in 200 μl of H2O and 10 mg of NaCNBH3 was added. The reaction mixture was heated at 70° C. for 24 hours; an additional 10 mg of NaCNBH3 was added; and the reaction was heated at 70° C. for another 24 hours. After cooling to room temperature, the mixture was desalted with the spin column (3000 MWCO). Biotinylated heparin was collected, freeze dried, and used for chip preparation. Biotinylated heparin was immobilized to streptavidin chips according to the manufacturer's protocol. In brief, 20 μl of biotinylated heparin solution (0.1 mg/ml) in HBS-P running buffer (0.01 M N-2-hydroxyethylpiperazine-N′-2-ethanesulfonic acid, 0.15 M NaCl, 0.005% surfactant P20 [pH7.4]; BR100368, Cytiva) was injected over flow cell 2 of the streptavidin chip at a flow rate of 10 μl/min. The successful immobilization of heparin was confirmed by the observation of an approximately 200-resonance unit increase in the sensor chip. The control flow cell (flow cell 1) was prepared by 1-minute injection with saturated biotin. For the preparation of FGFR4 chips, Fc-FGFR4 protein (human ectodomain) was immobilized on research grade CMS chips according to the standard amine coupling protocol. Briefly, carboxymethyl groups on the CMS chip surface were first activated using an injection pulse of […] of an equimolar mix of N-ethyl-N-(dimethylaminopropyl) carbodiimide and N-hydroxysuccinimide (final concentration 0.05 M, mixed immediately before injection). After activation, FGFR4 was diluted to […] in 100 mM sodium acetate (pH 5.5) buffer and injected over the activated biosensor surface. Excess unreacted sites on the sensor surface were deactivated with a 35 μl injection of 1 M ethanolamine. A reference flow cell was prepared using an injection pulse of […] of an equimolar mix of N-ethyl-N-(dimethylaminopropyl) carbodiimide and N-hydroxysuccinimide (final concentration 0.05 M, mixed immediately before injection) followed by a 35 μl injection of 1 M ethanolamine. For the measurement of interactions between FGF23 (human protein), FGFR4 (human ectodomain protein), klotho (human ectodomain, self-made; see above), and heparin, samples were diluted in HBS-P buffer. Different dilutions of protein were injected at a flow rate of 30 μl/min with HBS-P buffer as running buffer. At the end of the sample injection, HBS-P buffer was flowed over the sensor surface to facilitate dissociation. After a 3-minute dissociation time, the sensor surface was regenerated by injecting with 30 μl of 2 M NaCl to get a fully regenerated surface. The response was monitored as a function of time (sensorgram) at 25° C.

klotho = target: T2, klotho (Homo sapiens, UniProt Q9UEF7)
T2 construct: The sKL recombinant protein produced is mouse aa 35-982 and human aa 34-981; made in house; host or cells: Expi293 (HEK293) cells, stably transfected
T2 sequence (Q9UEF7 34-981): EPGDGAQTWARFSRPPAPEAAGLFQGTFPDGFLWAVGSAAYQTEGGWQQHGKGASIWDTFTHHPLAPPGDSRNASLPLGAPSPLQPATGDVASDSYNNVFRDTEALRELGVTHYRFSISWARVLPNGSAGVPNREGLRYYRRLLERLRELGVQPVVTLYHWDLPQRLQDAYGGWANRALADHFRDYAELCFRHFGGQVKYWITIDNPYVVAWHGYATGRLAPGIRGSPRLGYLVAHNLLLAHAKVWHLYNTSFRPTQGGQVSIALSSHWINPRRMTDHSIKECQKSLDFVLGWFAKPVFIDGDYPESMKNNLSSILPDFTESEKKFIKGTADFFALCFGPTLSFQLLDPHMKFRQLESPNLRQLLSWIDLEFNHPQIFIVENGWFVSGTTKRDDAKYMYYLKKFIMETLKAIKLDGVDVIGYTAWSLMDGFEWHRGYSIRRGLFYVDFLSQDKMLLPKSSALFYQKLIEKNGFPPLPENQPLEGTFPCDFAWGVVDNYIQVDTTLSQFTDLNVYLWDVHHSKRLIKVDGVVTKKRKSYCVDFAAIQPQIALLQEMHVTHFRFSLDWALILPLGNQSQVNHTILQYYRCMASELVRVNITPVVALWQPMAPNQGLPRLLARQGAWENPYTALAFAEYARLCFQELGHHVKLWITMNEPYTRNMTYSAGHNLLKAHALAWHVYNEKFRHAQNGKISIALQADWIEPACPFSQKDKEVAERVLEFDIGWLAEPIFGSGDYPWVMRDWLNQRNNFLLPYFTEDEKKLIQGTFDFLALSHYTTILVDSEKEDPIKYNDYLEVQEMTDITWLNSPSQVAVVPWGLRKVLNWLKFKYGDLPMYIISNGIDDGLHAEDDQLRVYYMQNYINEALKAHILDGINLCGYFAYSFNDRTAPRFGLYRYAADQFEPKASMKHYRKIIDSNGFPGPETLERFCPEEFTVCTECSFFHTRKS
Experimental: as §1

FGF23 = target: T3, FGF23 (Homo sapiens, UniProt Q9GZV9, R179Q)
T3 construct: purchased R&D Systems 2604FG025/CF
T3 sequence (Q9GZV9 25-251 R179Q): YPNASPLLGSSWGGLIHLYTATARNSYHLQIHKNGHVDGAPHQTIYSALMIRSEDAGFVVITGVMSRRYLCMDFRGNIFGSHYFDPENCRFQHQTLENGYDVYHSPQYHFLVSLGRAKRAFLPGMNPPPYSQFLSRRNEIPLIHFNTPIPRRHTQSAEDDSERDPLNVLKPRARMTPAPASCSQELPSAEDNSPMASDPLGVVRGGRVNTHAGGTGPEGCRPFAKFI
Experimental: as §1

T1 sequence (P22455 22-369 limits assumed): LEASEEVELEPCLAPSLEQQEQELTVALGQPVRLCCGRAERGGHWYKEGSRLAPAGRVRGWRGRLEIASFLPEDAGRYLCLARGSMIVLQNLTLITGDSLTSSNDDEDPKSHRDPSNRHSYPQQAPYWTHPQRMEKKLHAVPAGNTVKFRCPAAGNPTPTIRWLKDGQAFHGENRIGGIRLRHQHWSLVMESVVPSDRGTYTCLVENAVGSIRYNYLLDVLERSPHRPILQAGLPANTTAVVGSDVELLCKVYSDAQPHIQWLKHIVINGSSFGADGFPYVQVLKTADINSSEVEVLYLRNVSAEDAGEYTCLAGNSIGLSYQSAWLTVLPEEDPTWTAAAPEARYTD

Substance: heparin [reference compound]
- ka (FGFR4; 25° C.): 1.2 × 10^6 1/MS
- Kd (FGFR4; read-out: dissociation constant KD): 2.8 nM
- Kd (klotho): 15 nM
- ka (klotho; 25° C.): 8.0 × 10^4 1/MS
- kd (klotho; 25° C.): 1.1 × 10^−3 1/S
- Kd (FGF23): 7.6 nM
- ka (FGF23; 25° C.): 4.8 × 10^5 1/MS
- kd (FGF23; 25° C.): 3.6 × 10^−3 1/S
